The target in assay [1] is T1, EphA3 (Homo sapiens, UniProt P29320).
T1 construct: A clone of EphA3 kinase domain (residues: 606-947); made in house; host or cells: Escherichia coli BL21 (DE3)
T1 sequence (P29320 606-947): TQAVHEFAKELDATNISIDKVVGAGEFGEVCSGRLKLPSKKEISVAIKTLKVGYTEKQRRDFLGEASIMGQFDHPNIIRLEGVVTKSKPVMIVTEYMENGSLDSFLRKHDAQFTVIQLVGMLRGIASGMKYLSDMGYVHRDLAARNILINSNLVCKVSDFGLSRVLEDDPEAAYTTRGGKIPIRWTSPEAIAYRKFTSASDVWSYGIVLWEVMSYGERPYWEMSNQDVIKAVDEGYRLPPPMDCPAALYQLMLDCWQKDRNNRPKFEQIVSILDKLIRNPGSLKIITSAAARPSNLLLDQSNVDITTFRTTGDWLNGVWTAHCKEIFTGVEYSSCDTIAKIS
The assay can be described thus: Differential Scanning Fluorimetry. As to conditions: 2 µM EphA3, compound 20µM; read-out: Delta Tm. The assay is classed as binding. On the procedure: Cell pellets were resuspended in buffer A (50mM Tris, pH 8.0 and 100mM NaCl, supplemented with protease inhibitors) and lysed by sonication. After centrifugation at 15,000 rpm for 1 h, the soluble fraction of EphA3 was purified using […] (GE healthcare), followed by gel filtration chromatography (Superdex75; GE healthcare). The appropriate fractions were combined and concentrated to ~10 mg/mL using Amicon filter devices (10kDa as cutoff) in a storage solution (100mM sodium chloride and 10mM Tris-HCl pH 8.0, 5% glycerol). The resulting solution was aliquoted and stored at -80°C for further usage.
A final volume of 40µL was added per well in a 96 well plate and incubated at room temperature for 1 h. The plates were centrifuged for 3 min at 450 rcf. The temperature gradient was performed in the range of 25°C-75°C (50 acquisitions per degree at a ramp rate of 4.4°C/s) using a LightCycler 480 Real-Time PCR System. […] All measurements were performed in triplicate.

The test system of assay [2] is HOP-92 (lung cancer) cells. The assay can be described thus: Cell culture and GI50 determination (resazurin), HOP-92. The assay is classed as cell-based. To be noted: Homo sapiens; HOP-92, resazurin. On the procedure: (§1) Krek (Institute of Cell Biology, ETH Zurich) were cultured in Dulbelcco's modified Eagle's medium (DMEM) supplemented with 10% (v/v) fetal bovine serum. K562 leukemia cells obtained from Dr. Silvio Hemmi (Institute of Molecular Life Sciences, UZH) were cultured using RPMI medium supplemented with 5% (v/v) fetal bovine serum. All the media was additionally supplemented with 100 units/mL of penicillin, 100µg/mL of streptomycin, 4.5 g/L glucose, 0.11g/L sodium pyrubate and 2mM glutamine and the cells were grown at 37°C in 5% CO2 atmosphere with 80% relative humidity.
(§2) The old media was removed, the cells were washed with PBS (phosphate-buffered saline) and fresh media was added. […] Control cells were treated with the same DMSO concentrations. […] After 3 hours, the fluorescence was quantified using a fluorescence microplate reader (Biotek, FLx800™) at the respective excitation and emission wavelength of 560 and 590 nm. Resazurin becomes fluorescent under mitochondrial reduction and its emission directly correlates with the metabolic stability of the cells. […] All measurements were performed at least in triplicate (see table 1).
(Resazurin is reduced to fluorescent resorufin, in cell work by metabolically active cells.)

Assay [3] concerns HT-29. The assay is described as follows: Cell culture and GI50 determination (resazurin), HT-29. To be noted: Homo sapiens; HT-29, resazurin. The assay is classed as cell-based. On the procedure: as §2
Assay [4] relates to K-562 leukemia cells. The assay can be described thus: Cell culture and GI50 determination (resazurin), K-562. The assay is classed as cell-based. As to conditions: Homo sapiens, K562, K-562, 48 hour incubation. On the procedure: as §1
After 24 hours, 12.5 µL of a 10 fold concentrated drug or DMSO solution in RMPI media was added in every well. After 48 hour incubation, cell viability was studied by measuring the ability of the cells to process resazurin.

Assay [5] concerns A498 (kidney cancer) cells. The assay can be described thus: Cell culture and GI50 determination (resazurin), A-498. It is filed as cell-based. As to conditions: Homo sapiens, A-498, 48h incubation. On the procedure:
as §1, §2

In assay [6] the test system is MDA-MB-231 (breast cancer) cells. The assay is described as follows: Cell culture and GI50 determination (resazurin), MDA-MB-231. The assay is classed as cell-based. To be noted: Homo sapiens, MDA-MB-231, 72 h. On the procedure: as §1, §2
Assay [7] relates to KM12 (colon cancer) cells. The assay can be described thus: Cell culture and GI50 determination (resazurin), KM12. The assay is classed as cell-based. As to conditions: Homo sapiens. On the procedure:
as §1, §2

Structures are written as SMILES.

For orientation: GI50 means the concentration that inhibits growth by half. High values mean lower sensitivity of the cells, low ones greater sensitivity of the cells. In the case of `Cc1cn(-c2cc(NC(=O)c3ccc(C)c(-n4c(N)c(C(N)=O)c5nc6ccccc6nc54)c3)cc(C(F)(F)F)c2)cn1` [Compound 10l], the ΔTm at 20 µM in assay [1] came to 16.2 °C. For the same compound, the GI50 in assay [2] is 3010 nM; in assay [3], 4360 nM; in assay [4] it was 29 nM; in assay [5], 5710 nM; in assay [6], 3050 nM; in assay [7], 2840 nM.

With `NC(=O)c1c(N)n(-c2cc(C(=O)Nc3cccc(C(F)(F)F)c3)ccc2F)c2nc3ccccc3nc12` [Compound 10j], the ΔTm at 20 µM in assay [1] was 13 °C. The GI50 is 2120 nM in assay [2]; 2970 nM in assay [3]; 81 nM in assay [4]; 2440 nM in assay [5]; 2690 nM in assay [6]; 1870 nM in assay [7].

Consider `Cc1ccc(C(=O)Nc2cccc(C(F)(F)F)c2)cc1-n1c(N)c(C(N)=O)c2nc3ccccc3nc21` [Compound 10i], for which, in assay [1], the ΔTm at 20 µM was 14.4 °C. The GI50 is 1920 nM in assay [2]; 2820 nM in assay [3]; 36 nM in assay [4]; 2070 nM in assay [5]; 1320 nM in assay [6]; 1570 nM in assay [7].

For `Cc1cn(-c2cc(C(=O)Nc3ccc(C)c(-n4c(N)c(C(N)=O)c5nc6ccccc6nc54)c3)cc(C(F)(F)F)c2)cn1` [Compound 10m], the ΔTm at 20 µM in assay [1] was found to be 15.8 °C. Besides, the GI50 in assay [2] was 5120 nM; in assay [3], 13400 nM; in assay [4], 30 nM; in assay [5], 4010 nM; in assay [6] it was 1930 nM; in assay [7] it was 2540 nM.

`NC(=O)c1c(N)n(-c2cc(NC(=O)c3cccc(C(F)(F)F)c3)ccc2F)c2nc3ccccc3nc12` [Compound 10h, 2-amino-1-(2-fluoro-5-(3-(trifluoromethyl)benzamido)phenyl)-1H-pyrrolo[2,3-b]quinoxaline-3-carboxamide]: the ΔTm at 20 µM in assay [1] turned out to be 10.9 °C. Also, the GI50 in assay [2] worked out at 2060 nM; in assay [3] it was 1800 nM; in assay [4] it was 370 nM; in assay [5] it was 1880 nM; in assay [6], 1440 nM; in assay [7], 2160 nM.

With `Cc1ccc(NC(=O)c2cccc(C(F)(F)F)c2)cc1-n1c(N)c(C(N)=O)c2nc3ccccc3nc21` [Compound 10g, 2-amino-1-(2-methyl-5-(3-(trifluoromethyl)benzamido)phenyl)-1H-pyrrolo[2,3-b]quinoxaline-3-carboxamide], the ΔTm at 20 µM in assay [1] turned out to be 12.3 °C. Further, the GI50 was 4230 nM in assay [2]; 5870 nM in assay [3]; 730 nM in assay [4]; 2500 nM in assay [5]; 3880 nM in assay [6]; 800 nM in assay [7].

`NC(=O)c1c(N)n(-c2ccc(NC(=S)Nc3cccc(C(F)(F)F)c3)cc2)c2nc3ccccc3nc12` [Compound 10k, 2-amino-1-(4-(3-(3-(trifluoromethyl)phenyl)thioureido)phenyl)-1H-pyrrolo[2,3-b]quinoxaline-3-carboxamide]: the ΔTm at 20 µM in assay [1] was determined as 9.9 °C. For the same compound, the concentration for 50% growth inhibition (GI50) in assay [2] stood at 4250 nM; in assay [3] it was 16300 nM; in assay [4], 5070 nM; in assay [5], 8730 nM; in assay [6], 9630 nM; in assay [7] it was 2520 nM.

Take `NC(=O)c1c(N)n(-c2ccc(NC(=O)Nc3cccc(C(F)(F)F)c3)cc2)c2nc3ccccc3nc12` [Compound 10p, 2-amino-1-(4-(3-(3-(trifluoromethyl)phenyl)ureido)phenyl)-1H-pyrrolo[2,3-b]quinoxaline-3-carboxamide]: the GI50 is 10000 nM in assay [2]; 18000 nM in assay [3]; 5450 nM in assay [4]; 10800 nM in assay [5]; 10300 nM in assay [6]; 670 nM in assay [7].

The values are drawn from patent publication EP2924039A1, “2-Amino-1-phenyl-pyrrolo[3,2-b]quinoxaline-3-carboxamide derivates” (Universität Zürich, priority 2014, dated 2015).
